Patent publication US11008314B2, “Compounds and methods for modulating interleukin-2-inducible t-cell kinase” (CORVUS PHARMACEUTICALS, INC., priority 2016, dated 2021)

Assays:
Format in all cases: biochemical
ITK = ITK (Homo sapiens (Human), UniProt Q08881); assay: IC50 against ITK
TXK = TXK (Homo sapiens (Human), UniProt P42681); assay: IC50 against TXK; conditions: for TXK/ITK: ratio of TXK IC50 to ITK IC50
JAK3 = JAK3 (Homo sapiens (Human), UniProt P52333); assay: IC50 against JAK3
BTK = BTK (Homo sapiens (Human), UniProt Q06187); assay: IC50 against BTK
Sequence of BTK (Q06187 whole entry, species assumed): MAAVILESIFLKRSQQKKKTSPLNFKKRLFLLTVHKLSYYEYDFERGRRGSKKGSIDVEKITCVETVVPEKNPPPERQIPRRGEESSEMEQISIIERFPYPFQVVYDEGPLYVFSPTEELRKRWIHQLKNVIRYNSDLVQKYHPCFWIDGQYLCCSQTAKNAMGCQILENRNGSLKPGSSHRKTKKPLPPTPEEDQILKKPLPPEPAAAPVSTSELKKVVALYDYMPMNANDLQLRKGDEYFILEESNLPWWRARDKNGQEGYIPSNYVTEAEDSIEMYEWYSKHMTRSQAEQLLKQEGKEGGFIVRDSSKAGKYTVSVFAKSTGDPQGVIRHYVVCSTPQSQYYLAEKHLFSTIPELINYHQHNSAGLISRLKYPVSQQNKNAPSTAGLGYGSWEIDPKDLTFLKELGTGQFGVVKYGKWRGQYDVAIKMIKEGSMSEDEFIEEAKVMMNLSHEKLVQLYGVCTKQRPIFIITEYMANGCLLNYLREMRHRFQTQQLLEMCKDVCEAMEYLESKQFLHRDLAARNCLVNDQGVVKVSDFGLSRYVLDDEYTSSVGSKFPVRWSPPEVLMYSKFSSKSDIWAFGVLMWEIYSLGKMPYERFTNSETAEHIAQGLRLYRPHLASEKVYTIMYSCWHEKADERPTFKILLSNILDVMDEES

Sequence of JAK3 (P52333 whole entry, species assumed): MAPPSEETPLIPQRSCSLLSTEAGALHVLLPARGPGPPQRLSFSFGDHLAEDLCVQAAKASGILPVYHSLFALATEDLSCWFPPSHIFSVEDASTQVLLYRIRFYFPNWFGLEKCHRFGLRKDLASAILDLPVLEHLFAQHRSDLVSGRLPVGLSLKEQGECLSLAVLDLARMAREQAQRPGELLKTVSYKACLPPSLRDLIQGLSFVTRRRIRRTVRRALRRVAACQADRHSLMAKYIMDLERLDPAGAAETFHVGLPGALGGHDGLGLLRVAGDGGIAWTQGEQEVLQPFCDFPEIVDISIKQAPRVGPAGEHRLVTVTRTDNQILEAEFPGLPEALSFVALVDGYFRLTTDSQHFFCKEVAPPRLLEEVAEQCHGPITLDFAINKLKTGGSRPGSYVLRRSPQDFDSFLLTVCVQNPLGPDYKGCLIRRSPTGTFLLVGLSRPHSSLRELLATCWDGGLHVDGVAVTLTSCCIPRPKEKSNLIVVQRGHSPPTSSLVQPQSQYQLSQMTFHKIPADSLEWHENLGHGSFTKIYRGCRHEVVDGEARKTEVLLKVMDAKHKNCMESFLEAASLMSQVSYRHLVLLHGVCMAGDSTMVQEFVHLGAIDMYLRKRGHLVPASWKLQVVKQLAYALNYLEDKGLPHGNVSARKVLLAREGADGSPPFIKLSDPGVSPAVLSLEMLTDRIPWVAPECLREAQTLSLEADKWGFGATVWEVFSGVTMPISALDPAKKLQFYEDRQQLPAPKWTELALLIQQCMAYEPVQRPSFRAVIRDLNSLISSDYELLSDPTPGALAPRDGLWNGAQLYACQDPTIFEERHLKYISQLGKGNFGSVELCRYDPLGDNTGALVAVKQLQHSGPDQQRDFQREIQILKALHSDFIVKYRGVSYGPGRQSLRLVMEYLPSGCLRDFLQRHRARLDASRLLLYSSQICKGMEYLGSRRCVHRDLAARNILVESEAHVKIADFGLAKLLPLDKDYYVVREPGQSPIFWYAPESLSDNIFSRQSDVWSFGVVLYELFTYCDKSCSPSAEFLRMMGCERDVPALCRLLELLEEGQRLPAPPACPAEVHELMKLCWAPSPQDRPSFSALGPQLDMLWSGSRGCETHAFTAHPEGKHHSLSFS
Sequence of TXK (P42681 whole entry, species assumed): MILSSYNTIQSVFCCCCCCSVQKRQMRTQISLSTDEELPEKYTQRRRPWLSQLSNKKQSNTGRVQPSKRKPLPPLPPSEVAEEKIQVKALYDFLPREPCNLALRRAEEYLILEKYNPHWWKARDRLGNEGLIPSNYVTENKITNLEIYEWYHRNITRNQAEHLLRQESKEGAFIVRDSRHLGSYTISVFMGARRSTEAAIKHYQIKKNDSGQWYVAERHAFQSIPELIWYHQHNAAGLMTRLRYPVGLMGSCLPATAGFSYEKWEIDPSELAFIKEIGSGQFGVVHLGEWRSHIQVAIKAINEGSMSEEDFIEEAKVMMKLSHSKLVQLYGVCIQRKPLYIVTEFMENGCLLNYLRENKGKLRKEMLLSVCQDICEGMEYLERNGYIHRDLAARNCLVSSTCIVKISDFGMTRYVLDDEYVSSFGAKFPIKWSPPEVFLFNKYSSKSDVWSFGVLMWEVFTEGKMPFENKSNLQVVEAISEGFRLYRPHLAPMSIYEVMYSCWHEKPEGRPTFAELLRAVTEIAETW
Sequence of ITK (Q08881 whole entry): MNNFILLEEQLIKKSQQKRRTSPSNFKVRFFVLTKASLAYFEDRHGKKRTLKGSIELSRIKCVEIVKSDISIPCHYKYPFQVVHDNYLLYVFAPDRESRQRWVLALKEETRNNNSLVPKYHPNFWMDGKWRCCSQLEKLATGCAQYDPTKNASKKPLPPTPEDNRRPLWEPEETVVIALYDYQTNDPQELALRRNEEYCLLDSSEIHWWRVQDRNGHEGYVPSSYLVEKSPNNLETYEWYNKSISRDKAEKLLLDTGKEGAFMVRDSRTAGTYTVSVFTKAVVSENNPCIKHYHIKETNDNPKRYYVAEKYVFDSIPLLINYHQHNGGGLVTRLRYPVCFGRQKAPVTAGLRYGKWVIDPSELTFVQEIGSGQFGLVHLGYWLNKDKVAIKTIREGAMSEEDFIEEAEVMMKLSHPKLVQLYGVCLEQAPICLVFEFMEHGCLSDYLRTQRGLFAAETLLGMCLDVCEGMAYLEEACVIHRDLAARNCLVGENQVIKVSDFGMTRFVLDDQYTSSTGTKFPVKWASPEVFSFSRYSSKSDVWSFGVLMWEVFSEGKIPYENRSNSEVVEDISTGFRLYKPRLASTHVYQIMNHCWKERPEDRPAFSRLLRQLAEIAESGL

| IC50 (ITK) [nM] | IC50 (TXK) [nM] | TXK/ITK (TXK) | IC50 (JAK3) [nM] | IC50 (BTK) [nM] | SMILES |
| --- | --- | --- | --- | --- | --- |
| < 10 | 100 to 1000 | 19.869 | 100 to 1000 | 100 to 1000 | C=CC(=O)N1CCN(C(=O)c2cc(Sc3cnc(NC(C)=O)s3)c(C)cc2OC)CC1 [Compound 2] |
| 10 to 100 | 100 to 1000 | 5.162 | ≥ 10000 | 1000 to 10000 | COc1cc(C)c(Sc2cnc(NC(=O)C3CC3)s2)cc1C(=O)N1CCN(C(=O)/C=C/CN(C)C)CC1 [Compound 3] |
| 10 to 100 | 10 to 100 | 0.3296 | 100 to 1000 | 100 to 1000 | C=CC(=O)N1CCN(C(=O)c2cccc(Cc3cnc(NC(=O)C4CC4)s3)c2)CC1 [Compound 4] |
| < 10 | < 10 | 1.9721 | 100 to 1000 | 10 to 100 | C=CC(=O)N1CCN(C(=O)c2cc(Sc3cnc(NC(C)=O)s3)c(C)cc2OC)C(C)(C)C1 [Compound 5] |
| 10 to 100 | 100 to 1000 | 5.9566 | 1000 to 10000 | 1000 to 10000 | C=CC(=O)N1CCN(C(=O)c2cc(Sc3cnc(NC(C)=O)s3)c(C)cc2OC)CC1(C)C [Compound 6] |
| < 10 | 10 to 100 | 14.236 | 100 to 1000 | 100 to 1000 | C=CC(=O)N1CCN(C(=O)c2cc(Sc3cnc(NC(C)=O)s3)c(C)cc2OC)[C@@H](C)C1 [Compound 9] |
| 10 to 100 | 100 to 1000 | 8.0758 | 1000 to 10000 | 100 to 1000 | C=CC(=O)N1CCN(C(=O)c2cc(Sc3cnc(NC(C)=O)s3)c(C)cc2OC)[C@H](C)C1 [Compound 10] |
| < 10 | 100 to 1000 | 25.051 | 1000 to 10000 | 1000 to 10000 | C=CC(=O)N1CCN(C(=O)c2cc(Sc3cnc(NC(C)=O)s3)c(C)cc2OC)C[C@H]1C [Compound 11] |
| 10 to 100 | 100 to 1000 | 14.784 | 100 to 1000 | 100 to 1000 | C=CC(=O)N1CCN(C(=O)c2cc(Sc3cnc(NC(C)=O)s3)c(C)cc2OC)C[C@@H]1C [Compound 12] |
| 10 to 100 | 100 to 1000 | 22.987 | 1000 to 10000 | 1000 to 10000 | C=C(CN(C)C)C(=O)N1CCN(C(=O)c2cc(Sc3cnc(NC(=O)C4CC4)s3)c(C)cc2OC)CC1 [Compound 13] |
| < 10 | 100 to 1000 | 79.163 | 1000 to 10000 | 100 to 1000 | C=CC(=O)N1CCN(C(=O)c2cc(Sc3cnc(NC(=O)c4cccc(CN(C)C)c4)s3)c(C)cc2OC)CC1 [Compound 14] |
| < 10 | < 10 | 1.1111 | 10 to 100 | < 10 | C=CC(=O)N1CCN(C(=O)c2cc(Sc3cnc(NC(=O)C4CC4)s3)c(C)cc2OC)C(C)(C)C1 [Compound 15] |
| 10 to 100 | 10 to 100 | 4.9287 | 100 to 1000 | 100 to 1000 | C=CC(=O)N1CCN(C(=O)c2cc(Sc3cnc(NC(=O)C4CC4)s3)c(C)cc2OC)CC1(C)C [Compound 16] |
| < 10 | < 10 | 6.5873 | 100 to 1000 | 10 to 100 | C=CC(=O)N1CCN(C(=O)c2cc(Sc3cnc(NC(=O)C4CC4)s3)c(C)cc2OC)[C@@H](C)C1 [Compound 19] |
| < 10 | 10 to 100 | 2.2433 | 100 to 1000 | 100 to 1000 | C=CC(=O)N1CCN(C(=O)c2cc(Sc3cnc(NC(=O)C4CC4)s3)c(C)cc2OC)[C@H](C)C1 [Compound 20] |
| < 10 | 10 to 100 | 6.7674 | 100 to 1000 | 100 to 1000 | C=CC(=O)N1CCN(C(=O)c2cc(Sc3cnc(NC(=O)C4CC4)s3)c(C)cc2OC)C[C@@H]1C [Compound 22] |
| < 10 | < 10 | 1.4139 | 10 to 100 | < 10 | C=CC(=O)N1C[C@@H]2C[C@H]1CN2C(=O)c1cc(Sc2cnc(NC(=O)C3CC3)s2)c(C)cc1OC [Compound 23] |
| < 10 | 10 to 100 | 6.6876 | 100 to 1000 | 10 to 100 | C=CC(=O)N1C[C@@H]2C[C@H]1CN2C(=O)c1cc(Sc2cnc(NC(C)=O)s2)c(C)cc1OC [Compound 24] |
| < 10 | 10 to 100 | 20.879 | 100 to 1000 | 100 to 1000 | C=CC(=O)N1CCCN(C(=O)c2cc(Sc3cnc(NC(=O)C4CC4)s3)c(C)cc2OC)CC1 [Compound 25] |
| 10 to 100 | 100 to 1000 | 26.486 | 1000 to 10000 | 1000 to 10000 | C=CC(=O)N1CCCN(C(=O)c2cc(Sc3cnc(NC(C)=O)s3)c(C)cc2OC)CC1 [Compound 26] |
| < 10 | < 10 | 2.0165 | < 10 | < 10 | C=CC(=O)N1CC[C@@H](N(C)C(=O)c2cc(Sc3cnc(NC(=O)C4CC4)s3)c(C)cc2OC)C1 [Compound 27] |
| < 10 | 10 to 100 | 5.5925 | 10 to 100 | < 10 | C=CC(=O)N1CC[C@@H](N(C)C(=O)c2cc(Sc3cnc(NC(C)=O)s3)c(C)cc2OC)C1 [Compound 28] |
| < 10 | < 10 | 2.1804 | 100 to 1000 | 100 to 1000 | C=CC(=O)N1CC[C@H](N(C)C(=O)c2cc(Sc3cnc(NC(=O)C4CC4)s3)c(C)cc2OC)C1 [Compound 29] |
| < 10 | 10 to 100 |  | 1000 to 10000 |  | C=CC(=O)N1C[C@H]2CN(C(=O)c3cc(Sc4cnc(NC(=O)C5CC5)s4)c(C)cc3OC)C[C@H]21 [Compound 52] |
|  | 100 to 1000 |  | 1000 to 10000 | 1000 to 10000 | C=CC(=O)N1CCCN(C(=O)c2cc(Sc3cnc(NC(=O)C4CC4)s3)c(C)cc2OC)C[C@@H]1C [Compound 71] |
| < 10 | 10 to 100 |  | 100 to 1000 |  | C=CC(=O)N1CCN(C(=O)c2cc(Sc3cnc(NC(=O)C4CC4)s3)c(C)cc2C)C[C@H]1C [Compound 75] |

| SMILES | IC50 (ITK) [nM] | IC50 (TXK) [nM] | TXK/ITK (TXK) | IC50 (JAK3) [nM] | IC50 (BTK) [nM] |
| --- | --- | --- | --- | --- | --- |
| C=CC(=O)N1C[C@H]2CC[C@@H](C1)N2C(=O)c1cc(Sc2cnc(NC(C)=O)s2)c(C)cc1OC [Compound 7] | < 10 | 10 to 100 | 11.993 | 10 to 100 | 10 to 100 |
| C=CC(=O)N1[C@@H]2CC[C@H]1CN(C(=O)c1cc(Sc3cnc(NC(C)=O)s3)c(C)cc1OC)C2 [Compound 8] | < 10 | 10 to 100 | 11.265 | 100 to 1000 | 10 to 100 |
| C=CC(=O)N1C[C@H]2CC[C@@H](C1)N2C(=O)c1cc(Sc2cnc(NC(=O)C3CC3)s2)c(C)cc1OC [Compound 17] | < 10 | < 10 | 5.4235 | 10 to 100 | < 10 |
| C=CC(=O)N1[C@@H]2CC[C@H]1CN(C(=O)c1cc(Sc3cnc(NC(=O)C4CC4)s3)c(C)cc1OC)C2 [Compound 18] | < 10 | < 10 | 2.8993 | 10 to 100 | 10 to 100 |
